These results are taken from paper PMC12980303, “Development of a novel risk score reflecting the relative harm potential of synthetic cannabinoids based on prevalence estimates, well‐documented intoxication cases and basic pharmacological data” (Addiction (Abingdon, England), 2025).

Series [1] deals with T1, hCB1 receptor (Homo sapiens, UniProt P21554). Nature of the series: competitive [3H]CP‐55940 radioligand binding assay (hCB1 receptor affinity). The note with it: Ki [nM] (95% CI), [3H]CP‐55940 competition, hCB1 membrane preparations (HEK293‐EBNA), Cheng–Prusoff; 95% CI in brackets. As to the method: (§1) Receptor assays were performed on three different days and each concentration was tested in duplicate.
From the IC50, the respective Ki values were calculated using the Cheng–Prusoff equation [39].

Series [2] concerns the target T1, hCB1 receptor. Nature of the series: functional [35S]GTPγS hCB1 activation assay. It is filed as biochemical. As to the method: as §1
(Binding of GTPγS marks nucleotide exchange on a G protein.)

The nature of series [3]: occurrence of SCRAs in intoxication samples of the prospective study. The note with it: 2013 to 2021. More on the design: species or system human. The source says: For this study, the 10 SCRAs (AB‐[…], ADB‐[…], AB‐FUBINACA, FUB‐AMB, Cumyl‐PEGACLONE, MDMB‐4en‐PINACA, MDMB‐CHMICA, 5F‐MDMB‐PICA, 5F‐ADB and 5F‐PB‐22) which were most frequently detected in intoxications in a prospective observational study during the time period of 2013 to 2021 were selected (see Table 1). Additionally, JWH‐210, a model compound representative of the early SCRAs, along with two substances prevalent in screenings during years 2019/2020 (5F‐Cumyl‐PEGACLONE and 4F‐MDMB‐BICA), were included in this study (see Tables S2–S7). […] JWH‐018 was also included as a reference compound because of its historical use in this capacity. Including both reference compounds facilitates direct comparison with previously published data, thereby enhancing the relevance and interpretability of the results obtained in the present study. Information on the origin of the test and reference compounds and all chemicals used in this study can be found in Table S1.
The data on intoxication cases used for the development of this risk score were obtained from a prospective study. This study included patients who were treated in an emergency department room following the consumption of an NPS. Clinical symptoms and follow‐up information were documented using a structured questionnaire completed by the attending physicians. The methodology has been previously published. Residual serum (obtained from venous blood) and urine samples, accompanied by the completed questionnaires, were sent to the Poisons Information Center Freiburg for further analysis. The toxicological analyses of serum and urine samples were conducted at the Institute of Forensic Medicine Freiburg. No data was available on previous consumption patterns or potential development of tolerance after continued misuse. The study was conducted in accordance with the Declaration of Helsinki and approved by the regional ethics committee of the University of Freiburg (no. 235/13_130683). The intoxication cases included in this study are those in which SCRA use was confirmed by liquid chromatography tandem mass spectrometry (LC–MS/MS).

SMILES strings stand for the structures.

T1 sequence (P21554 whole entry): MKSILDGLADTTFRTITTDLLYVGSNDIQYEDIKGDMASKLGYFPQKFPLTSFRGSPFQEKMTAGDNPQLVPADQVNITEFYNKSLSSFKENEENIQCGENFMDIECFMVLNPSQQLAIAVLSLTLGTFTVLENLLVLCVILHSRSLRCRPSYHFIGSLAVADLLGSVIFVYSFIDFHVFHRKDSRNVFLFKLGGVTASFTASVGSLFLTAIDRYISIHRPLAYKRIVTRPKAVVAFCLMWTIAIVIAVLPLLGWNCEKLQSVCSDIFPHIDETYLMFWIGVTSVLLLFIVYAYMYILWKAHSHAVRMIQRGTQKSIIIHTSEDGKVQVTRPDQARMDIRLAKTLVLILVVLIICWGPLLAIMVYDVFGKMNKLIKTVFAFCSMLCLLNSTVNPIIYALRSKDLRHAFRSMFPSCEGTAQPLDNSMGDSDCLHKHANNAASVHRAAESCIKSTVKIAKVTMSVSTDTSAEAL

The compound `CC(C)C(NC(=O)c1nn(CC2CCCCC2)c2ccccc12)C(N)=O` (centres unmarked) came in with a Ki at hCB1 receptor [1] of 0.145 nM. The compound also had an EC50 at hCB1 receptor [2] of 5.09 nM. For the same compound, on hCB1 receptor [2] (read-out: [35S]‐GTPγS assay Emax [%] (95% CI)), the Emax is 124%. This compound also yielded a No. of intoxications in series [3] (139 intoxication samples of the prospective study) of 33. The compound also gave a Percentage in % in series [3] (proportion of 139 intoxications in which the substance was detected) of 24%.

Broadly, the Ki is the equilibrium dissociation constant of an inhibitor or competing ligand from its target. The low end stands for tighter binding, the high end for weaker binding. Broadly, the EC50 is the midpoint of the concentration-response curve. A higher EC50 goes with a less potent agent. Usually Emax stands for the size of the effect at its maximum, as opposed to the concentration needed.
